Measurements from PMC12135508 (Antimicrobial Agents and Chemotherapy, 2025).
Read-outs that look alike come from different tables or passages of the source. Marks after values point to notes of the source that are not given here.

Tests used:
E. coli TOP10F´/pMBLe = test: MIC by broth microdilution, empty-vector control clone; type: cell-based; conditions: Escherichia coli; E. coli TOP10F´ with empty vector pMBLe; 50 µM IPTG; combinations given as β-lactam/inhibitor; read-out: Minimum inhibitory concentration
Text: (§1) The KPC-2 gene was recovered from a clinical Klebsiella pneumoniae strain previously characterized in our laboratory ([46]). E. coli TOP10 F´ (Invitrogen, USA) and E. coli BL21(DE3) (Novagen, Germany) were used as hosts for transformation experiments, to obtain recombinant clones for antimicrobial susceptibility and overexpression assays, respectively. Escherichia coli ATCC 25922 and ATCC 35218 were used as control strains for antimicrobial susceptibility assays.
(§2) Minimum inhibitory concentrations (MICs) of different β-lactams and combinations with β-lactamase inhibitors were determined by an adaptation of the broth microdilution method by the CLSI ([49]), as follows. As we used E. coli recombinant clones harboring pMBLe/bla constructions, where protein production is regulated by isopropyl-β-D-thiogalactoside (IPTG) induction ([47]), antimicrobial susceptibility assays were performed using Mueller Hinton broth supplemented with 50 µM IPTG. Also, as control strains we included the E. coli Top10F’ (used as recipient strain in transformation assays), and the same strain transformed with the empty vector pMBLe, to have a comparison under the same isogenic background.

E. coli TOP10F´ = test: microbe, parasite or virus in culture; type: cell-based; conditions: Escherichia coli, read-out: Minimum inhibitory concentration
Text: as §1, §2

[1] = test system: E. coli TOP10F´ pMBLe/KPC-14; test: MIC by broth microdilution, KPC-14-producing recombinant clone; type: cell-based, Escherichia coli; conditions: for MIC: Escherichia coli, E. coli TOP10F´ pMBLe/KPC-14, 50 µM IPTG, combinations given as β-lactam/inhibitor, read-out: Minimum inhibitory concentration; for MIC interpretation in KPC-14 recombinant clone: recombinant clone harboring KPC-14
Method: (§3) Ligation mixtures were transformed in chemically competent E. coli TOP10F´ cells, and recombinant clones were selected in Lysogeny broth (LB) agar supplemented with 20 µg/mL gentamicin or 30 µg/mL kanamycin, depending on whether the constructions were obtained in pMBLe or pET24a(+) vectors, respectively. Recombinant plasmids of the selected clones were extracted and sequenced to verify the identity of bla genes and their proper insertion.
as §2, with “IPTG.” for “IPTG. Also, as control strains we included the E. coli Top10F’ (used as recipient strain in transformation assays), and the same strain transformed with the empty vector pMBLe, to have a comparison under the same isogenic background.”

[2] = test system: E. coli TOP10F´ pMBLe/KPC-2; test: MIC by broth microdilution, KPC-2-producing recombinant clone; type: cell-based; conditions: Escherichia coli, 50 µM IPTG, combinations given as β-lactam/inhibitor, read-out: Minimum inhibitory concentration
Method: as §3
as §2, with “IPTG.” for “IPTG. Also, as control strains we included the E. coli Top10F’ (used as recipient strain in transformation assays), and the same strain transformed with the empty vector pMBLe, to have a comparison under the same isogenic background.”

KPC-14 [3] = target: T1, KPC-14 (Klebsiella pneumoniae, UniProt Q9F663, DEL241-242); test: Steady-state kinetics of β-lactam hydrolysis by KPC-14; type: biochemical; conditions: for kcat / Km: KPC-14
T1 construct: amplify the entire blaKPC-14 gene with the cloning primers; made in house; host or cells: E. coli BL21(DE3), pET24a(+)
Text: (Eq. 1) v=(Vmax×[S]) / (Km+[S])
(Eq. 2) KI=KI obs / (1+[NCF]/KM(NCF))

KPC-14 [4] = test system: KPC-14; design: method as in earlier work; conditions: ref 20 Oueslati et al., cited from earlier work
KPC-2 [5] = conditions: ceftazidime as reporter substrate, ref 20 Oueslati et al.; cited from earlier work
[6] = test system: C[C@@H](O)[C@H]1C(=O)N2C(C(=O)O)=C(S[C@@H]3CN[C@H](C(=O)N(C)C)C3)[C@H](C)[C@H]12; test: purified protein, by the assay type; conditions: other: KPC-2, 50 mM sodium phosphate pH 7.0, room temperature
[7] = test system: CC(=O)OCC1=C(C(=O)O)N2C(=O)[C@@H](NC(=O)Cc3cccs3)[C@H]2SC1; test: purified protein, by the assay type; conditions: other: KPC-2, 50 mM sodium phosphate pH 7.0, room temperature
[8] = test system: C[C@@H](O)[C@H]1C(=O)N2C(C(=O)O)=C(SCCN=CN)C[C@H]12; test: purified protein, by the assay type; conditions: other: KPC-2, 50 mM sodium phosphate pH 7.0, room temperature
[9] = test system: CO/N=C(\C(=O)N[C@@H]1C(=O)N2C(C(=O)O)=C(CSc3nc(=O)c(=O)[nH]n3C)CS[C@H]12)c1csc(N)n1; test: purified protein, by the assay type; conditions: other: KPC-2; determined with nitrocefin as reporter in competitive assays; pH 7.0
[10] = test system: CO/N=C(\C(=O)N[C@@H]1C(=O)N2C(C(=O)O)=C(COC(N)=O)CS[C@H]12)c1ccco1; test: purified protein, by the assay type; conditions: other: KPC-2, 50 mM sodium phosphate pH 7.0, room temperature
[11] = test system: CO/N=C(\C(=O)N[C@@H]1C(=O)N2C(C(=O)[O-])=C(C[N+]3(C)CCCC3)CS[C@H]12)c1csc(N)n1; test: purified protein, by the assay type; conditions: other: KPC-2, 50 mM sodium phosphate pH 7.0, room temperature
[12] = test system: CCN1CCN(C(=O)N[C@@H](C(=O)N[C@@H]2C(=O)N3[C@@H]2SC(C)(C)[C@@H]3C(=O)O)c2ccccc2)C(=O)C1=O; test: purified protein, by the assay type; conditions: other: KPC-2, 50 mM sodium phosphate pH 7.0, room temperature
[13] = test system: CC(C)(O/N=C(\C(=O)N[C@@H]1C(=O)N2C(C(=O)[O-])=C(C[n+]3ccccc3)CS[C@H]12)c1csc(N)n1)C(=O)O; test: purified protein, by the assay type; conditions: other: KPC-2; determined with nitrocefin as reporter in competitive assays; pH 7.0
KPC-14 [14] = target: T1, KPC-14; test: Clavulanic acid inhibition and hydrolysis, KPC-14; type: biochemical
Method: (§4) To assess if KPC-14 shares the same behavior, KI app and kinact values for clavulanic acid of both enzymes were determined as previously reported ([32], [33]). The initial velocity (V0) of clavulanic acid hydrolysis was monitored at 235 nm ([32]), mixing an inhibitor concentration five times the KM determined and 100 nM of enzyme. V0 obtained under this condition was considered the Vmax and was used to determine the kcat for clavulanic acid.

KPC-2 [15] = target: T2, KPC-2 (Klebsiella pneumoniae, UniProt Q9F663); test: Clavulanic acid inhibition and hydrolysis, KPC-2; type: biochemical
T2 construct: The complete blaKPC-2 gene was amplified from whole DNA; made in house; host or cells: E. coli BL21(DE3), pET24a(+)
Method: as §4

[16] = 50 mM sodium phosphate pH 7.0, room temperature
[17] = E. coli TOP10F´ recipient strain, Mueller Hinton broth + 50 µM IPTG, combinations given as β-lactam/inhibitor
[18] = determined with nitrocefin as reporter in competitive assays

T1 sequence (Q9F663 25-240, added parts left off, stated change not applied): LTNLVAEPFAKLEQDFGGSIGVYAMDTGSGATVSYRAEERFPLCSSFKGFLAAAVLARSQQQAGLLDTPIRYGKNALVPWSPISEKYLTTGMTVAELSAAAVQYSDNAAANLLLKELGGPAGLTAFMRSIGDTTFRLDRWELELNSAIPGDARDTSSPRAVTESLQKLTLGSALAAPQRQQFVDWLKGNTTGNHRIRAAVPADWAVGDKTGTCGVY
T2 sequence (Q9F663 25-293 limits assumed): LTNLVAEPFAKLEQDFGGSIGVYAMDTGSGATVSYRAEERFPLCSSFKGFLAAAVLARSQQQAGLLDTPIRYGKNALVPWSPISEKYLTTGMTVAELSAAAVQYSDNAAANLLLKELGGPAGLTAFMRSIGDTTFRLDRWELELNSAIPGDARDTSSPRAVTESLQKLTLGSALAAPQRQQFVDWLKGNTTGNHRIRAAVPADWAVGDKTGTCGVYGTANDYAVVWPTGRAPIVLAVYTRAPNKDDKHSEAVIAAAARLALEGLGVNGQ

In the case of `CO/N=C(\C(=O)N[C@@H]1C(=O)N2C(C(=O)O)=C(CSc3nc(=O)c(=O)[nH]n3C)CS[C@H]12)c1csc(N)n1` [Ceftriaxone], the MIC (E. coli TOP10F´/pMBLe) is reported as ≤ 0.25 µg/mL and the MIC (E. coli TOP10F´) is reported as ≤ 0.25 µg/mL.

In the case of `CO/N=C(\C(=O)N[C@@H]1C(=O)N2C(C(=O)[O-])=C(C[N+]3(C)CCCC3)CS[C@H]12)c1csc(N)n1` [Cefepime], the MIC (E. coli TOP10F´/pMBLe) is reported as ≤ 0.25 µg/mL, the MIC [1] is reported as 1 µg/mL and the MIC [2] is reported as 1 µg/mL. For the same molecule, the “hydrolytic efficiency (kcat/KM) fold increase, KPC-14 vs KPC-2” value (KPC-14 [3]) was 3 fold, the kcat (KPC-14 [3]) was 0.61 ± 0.03 s⁻¹ and the Km (KPC-14 [3]; [16]) was 7 ± 1 µM. The MIC (E. coli TOP10F´; [17]) was ≤ 0.25 µg/mL.

Molecule `CC(C)(O/N=C(\C(=O)N[C@@H]1C(=O)N2C(C(=O)[O-])=C(C[n+]3ccccc3)CS[C@H]12)c1csc(N)n1)C(=O)O` [Ceftazidime] has an MIC [1] of 32 µg/mL, an MIC [2] of 2 µg/mL and an MIC (E. coli TOP10F´; [17]) of 0.12 µg/mL.

With `C[C@@H](O)[C@H]1C(=O)N2C(C(=O)O)=C(S[C@@H]3CN[C@H](C(=O)N(C)C)C3)[C@H](C)[C@H]12` [Meropenem] the MIC (E. coli TOP10F´/pMBLe) was ≤ 0.03 µg/mL, the MIC [1] was ≤ 0.03 µg/mL and the “MIC interpretation in KPC-14 recombinant clone” value [1] was “within the susceptibility range”. For the same molecule, the MIC [2] was 1 µg/mL, the “kcat/KM fold lower, KPC-14 vs KPC-2” value (KPC-14 [3]) was 1,000 fold and the kcat (KPC-14 [3]) was “(8.8000 ± 0.0001) × 10^−4 s^−1”. The Km (KPC-14 [3]; [18]) was 10 ± 1 µM and the MIC (E. coli TOP10F´; [17]) was ≤ 0.03 µg/mL.

For `C[C@@H](O)[C@H]1C(=O)N2C(C(=O)O)=C(SCCN=CN)C[C@H]12` [Imipenem], the MIC (E. coli TOP10F´/pMBLe) was 0.12 µg/mL, the MIC [1] was 0.25 µg/mL and the “MIC interpretation in KPC-14 recombinant clone” value [1] was “within the susceptibility range”. For the same molecule, the MIC [2] was 2 µg/mL, the “kcat/KM fold lower, KPC-14 vs KPC-2” value (KPC-14 [3]) was 11 fold and the kcat (KPC-14 [3]) was “(5.93 ± 0.02) × 10^−3 s^−1”. The Km (KPC-14 [3]; [18]) was 0.55 ± 0.02 µM, the “turnover (kcat) fold decrease, KPC-14 vs KPC-2” value (KPC-14 [3]; this work) was 2,500 fold and the “turnover (kcat) fold reduction, KPC-14” value (KPC-14 [4]) was 1,000 fold. For the same molecule, the MIC (E. coli TOP10F´; [17]) was 0.12 µg/mL.

With `CC1(C)S[C@@H]2[C@H](NC(=O)[C@H](N)c3ccccc3)C(=O)N2[C@H]1C(=O)O` [Ampicillin] the MIC [1] was 64 µg/mL, the MIC [2] was 1020 µg/mL and the “kcat/KM fold lower, KPC-14 vs KPC-2” value (KPC-14 [3]) was 24 fold. It also gave a kcat (KPC-14 [3]) of 0.83 ± 0.02 s⁻¹, a Km (KPC-14 [3]; [16]) of 95 ± 10 µM and an MIC (E. coli TOP10F´; [17]) of 2 µg/mL.

In the case of `CC(=O)OCC1=C(C(=O)O)N2C(=O)[C@@H](NC(=O)Cc3cccs3)[C@H]2SC1` [Cephalothin], the MIC [1] is reported as 64 µg/mL, the MIC [2] is reported as 256 µg/mL and the MIC (E. coli TOP10F´; [17]) is reported as 8 µg/mL.

In the case of `NC(=O)[C@@H]1CC[C@@H]2CN1C(=O)N2OS(=O)(=O)O` [Avibactam, avibactam], the IC50 (KPC-2 [5]) is listed as […] and the IC50 (KPC-14 [4]; KPC-14, ceftazidime as reporter substrate) is listed as 107 nM.

Work on KPC-2 (Klebsiella pneumoniae) yielded a Km [6] of 31 ± 2 µM, a kcat [6] of 2.85 ± 0.06 s⁻¹ and a kcat/Km [6] of 91000 ± 6000 M⁻¹ s⁻¹. The Km [7] was 159 ± 15 µM, the kcat [7] was 56 ± 2 s⁻¹ and the kcat/Km [7] was 360000 ± 40000 M⁻¹ s⁻¹. It also gave a Km [8] of 120 ± 9 µM, a kcat [8] of 15 ± 0.4 s⁻¹ and a kcat/Km [8] of 120000 ± 10000 M⁻¹ s⁻¹. For the same molecule, the Km [9] was 267 ± 29^a µM, the kcat [9] was 52 ± 7 s⁻¹ and the kcat/Km [9] was 194000 ± 6000 M⁻¹ s⁻¹. For the same molecule, the Km [10] was 319 ± 48 µM, the kcat [10] was 85 ± 8 s⁻¹ and the kcat/Km [10] was 270000 ± 50000 M⁻¹ s⁻¹. The Km [11] was 59 ± 5 µM, the kcat [11] was 1.31 ± 0.04 s⁻¹ and the Km [12] was 97 ± 12 µM. The kcat [12] was 29 ± 1 s⁻¹, the kcat/Km [12] was 300000 ± 40000 M⁻¹ s⁻¹ and the Km [13] was 1,319 ± 145^a µM. For the same molecule, the kcat [13] was 0.9 ± 0.1 s⁻¹ and the kcat/Km [13] was 830 ± 40 M⁻¹ s⁻¹.

In the case of `C[C@H]1[C@H](NC(=O)/C(=N\OC(C)(C)C(=O)O)c2csc(N)n2)C(=O)N1S(=O)(=O)O` [Aztreonam], the MIC (E. coli TOP10F´/pMBLe) is reported as ≤ 0.25 µg/mL and the MIC (E. coli TOP10F´; [17]) is reported as ≤ 0.25 µg/mL.

For `O=C(O)[C@H]1/C(=C/CO)O[C@@H]2CC(=O)N21` [clavulanic acid], the “hydrolysis of inhibitor monitored at 235 nm” value (KPC-14 [14]; inhibitor five times above Ki app, 100 nM enzyme) was “No hydrolytic activity was detected”, the Ki (KPC-14 [14]; nitrocefin competition, read-out: Ki app) was 8.5 ± 1.1 µM and the “concentration sufficient for complete inhibition of enzyme activity” value (KPC-14 [14]; nitrocefin hydrolysis time courses) was 16 µM. For the same molecule, the “inhibition of nitrocefin hydrolysis at 300 µM inhibitor” value (KPC-2 [15]; 300 µM clavulanic acid) was “residual hydrolytic activity”, the “kcat (turnover of inhibitor hydrolysis)” value (KPC-2 [15]; 235 nm, inhibitor five times above KM, 100 nM enzyme) was 11.60 ± 0.01 s⁻¹ and the “KM (Ki app expressed as KM)” value (KPC-2 [15]; nitrocefin competition) was 80 ± 8 µM.
